Measurements taken from PMC11091828 (Journal of medicinal chemistry, 2023).

Experiments:
hMOR = hMOR (Homo sapiens, UniProt P35372); assay: hMOR radioligand binding, competition with [3H]-DAMGO, HEK293 membranes; settings: for improved MOR affinity with respect to 2-THP unsubstituted analog: 122 vs 115, 121 vs 112
mMOR [1] = molecular target: T1, mMOR (Mus musculus, UniProt P42866); assay: BRET Nb33 recruitment at MOR, HEK 293T cells; type: cell-based; settings: read-out: MOR Nb33 recruitment Emax ± SEM
T1 sequence (P42866 whole entry): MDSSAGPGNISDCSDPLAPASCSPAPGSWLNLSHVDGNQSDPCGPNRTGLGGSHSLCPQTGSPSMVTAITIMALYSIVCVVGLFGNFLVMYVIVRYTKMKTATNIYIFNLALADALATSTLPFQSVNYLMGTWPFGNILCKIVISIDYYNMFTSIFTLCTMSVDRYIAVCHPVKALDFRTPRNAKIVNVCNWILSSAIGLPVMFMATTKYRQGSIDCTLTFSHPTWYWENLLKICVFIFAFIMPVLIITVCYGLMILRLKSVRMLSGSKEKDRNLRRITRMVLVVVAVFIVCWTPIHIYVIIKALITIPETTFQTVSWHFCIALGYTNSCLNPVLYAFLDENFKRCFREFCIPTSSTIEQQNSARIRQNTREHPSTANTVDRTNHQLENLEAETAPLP

mMOR [2] = molecular target: T1, mMOR; assay: BRET arrestin-3 recruitment at MOR with overexpressed GRK2, HEK 293T cells; type: cell-based; settings: NA = No Activity at the highest tested concentration
hD3R [3] = molecular target: T2, hD3R (Homo sapiens, UniProt P35462); type: binding; settings: from Ki values
T2 sequence (P35462 whole entry): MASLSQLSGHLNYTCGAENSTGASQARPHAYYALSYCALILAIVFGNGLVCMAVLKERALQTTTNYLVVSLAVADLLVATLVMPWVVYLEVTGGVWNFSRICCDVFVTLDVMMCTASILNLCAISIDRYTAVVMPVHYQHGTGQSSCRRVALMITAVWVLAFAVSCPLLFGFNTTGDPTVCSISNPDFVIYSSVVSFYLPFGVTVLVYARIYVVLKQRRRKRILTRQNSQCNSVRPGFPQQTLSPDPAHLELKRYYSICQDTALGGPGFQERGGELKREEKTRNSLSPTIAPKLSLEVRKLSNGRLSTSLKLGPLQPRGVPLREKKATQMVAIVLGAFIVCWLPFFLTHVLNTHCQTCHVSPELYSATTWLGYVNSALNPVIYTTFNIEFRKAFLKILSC

hD3R [4] = molecular target: T2, hD3R; assay: BRET D3R-mediated GαoA G protein activation; type: cell-based; settings: agonist mode; NA = No Activity at the highest tested concentration
mMOR [5] = molecular target: T1, mMOR; assay: BRET MOR-mediated Gαi2 G protein activation; type: cell-based; settings: NA = No Activity at the highest tested concentration

Sequence of hMOR (P35372 whole entry): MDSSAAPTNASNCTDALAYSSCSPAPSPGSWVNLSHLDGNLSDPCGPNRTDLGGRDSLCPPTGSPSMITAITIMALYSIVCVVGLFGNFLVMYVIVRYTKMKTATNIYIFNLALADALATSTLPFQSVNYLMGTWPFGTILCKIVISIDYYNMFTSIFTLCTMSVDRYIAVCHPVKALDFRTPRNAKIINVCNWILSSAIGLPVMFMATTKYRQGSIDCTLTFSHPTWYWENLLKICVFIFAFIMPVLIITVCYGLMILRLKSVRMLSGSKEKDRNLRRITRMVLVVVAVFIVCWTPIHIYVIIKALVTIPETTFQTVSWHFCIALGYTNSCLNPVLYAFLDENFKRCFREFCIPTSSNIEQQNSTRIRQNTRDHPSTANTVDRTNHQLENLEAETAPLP

`CN(C)C(=O)C(CCN1C[C@H](O)CC1=CN1CCN(c2cccc(Cl)c2Cl)CC1)(c1ccccc1)c1ccccc1` (mixture of isomers) [compound 26, (R)-4-(2-((4-(2,3-Dichlorophenyl)piperazin-1-yl)methylene)-4-hydroxypyrrolidin-1-yl)-N,N-dimethyl-2,2-diphenylbutanamide] showed a Ki (hMOR) of 23.8 nM.
For `CCCN(CCC(C(=O)N(C)C)(c1ccccc1)c1ccccc1)[C@@H]1C[C@H]1c1ccc(Cl)cc1` (relative stereo) [compound 80, rel-trans-4-((2-(4-Chlorophenyl)cyclopropyl)(propyl)amino)-N,N-dimethyl-2,2-diphenylbutanamide], the Emax (mMOR [1]) was 27.7 ± 4.9%.
`COc1ccccc1[C@@H]1C[C@H]1NCCC(C(=O)N(C)C)(c1ccccc1)c1ccccc1` (relative stereo) [compound 84, rel-trans-4-((2-(2-Methoxyphenyl)cyclopropyl)amino)-N,N-dimethyl-2,2-diphenylbutanamide] gave an Emax (mMOR [1]) of 31 ± 2.3%.
`Clc1ccc([C@@H]2C[C@H]2NCCC2(c3ccccn3)CCOC3(CCCC3)C2)cc1` (relative stereo) [compound 121, rel-trans-2-(4-Chlorophenyl)-N-(2-(9-(pyridin-2-yl)-6-oxaspiro[4.5]decan-9-yl)ethyl)cyclopropan-1-amine] was tested, and the “MOR arr3 recruitment (+ GRK2) pEC50 ± SEM” value (mMOR [2]) was 6.58 ± 0.08, the “D3R selectivity over D2R” value (hD3R [3]) was 15 fold and the “improved MOR affinity with respect to 2-THP unsubstituted analog” value (hMOR) was over 10 fold.
For `CCc1cc(Cl)c(OC)c(N2CCN(C[C@@H]3C[C@@H](O)CN3CCC(C(=O)N(C)C)(c3ccccc3)c3ccccc3)CC2)c1` [compound 34, 4-((2S,4R)-2-((4-(3-Chloro-5-ethyl-2-methoxyphenyl)piperazin-1-yl)methyl)-4-hydroxypyrrolidin-1-yl)-N,N-dimethyl-2,2-diphenylbutanamide], the “D3R GoA activation pEC50 ± SEM” value (hD3R [4]) was 7.60 ± 0.99.
With `CN(C)C(=O)C(CCN1C[C@H](F)C[C@H]1C(=O)NCCCCN1CCN(c2cccc(C(F)(F)F)n2)CC1)(c1ccccc1)c1ccccc1` [compound 56, (2S,4R)-1-(4-(Dimethylamino)-4-oxo-3,3-diphenylbutyl)-4-fluoro-N-(4-(4-(6-(trifluoromethyl)pyridin-2-yl)piperazin-1-yl)butyl)pyrrolidine-2-carboxamide] the “MOR Gi2 activation pEC50 ± SEM” value (mMOR [5]) was 5.94 ± 0.08.
With `FC(F)(F)c1cccc(N2CCN(CCC3(c4ccccn4)CCOC4(CCCC4)C3)CC2)n1` (stereo not drawn) [compound 122, 1-(2-(9-(Pyridin-2-yl)-6-oxaspiro[4.5]decan-9-yl)ethyl)-4-(6-(trifluoromethyl)pyridin-2-yl)piperazine] the “improved MOR affinity with respect to 2-THP unsubstituted analog” value (hMOR) was over 10 fold.
